According to patent US10125135B2, “Chemical compounds” (AstraZeneca AB, priority 2016, dated 2018):

Experiment: logD shake flask, 1-octanol/aqueous buffer
Type: physicochemical
Details: pH 7.4
Source text: The lipophilicity of a drug is an important physical property which may influence many biological and metabolic properties of a compound. The distribution coefficient between 1-octanol and aqueous buffer, Log DO/W, at pH 7.4, is the most commonly used measurement of the lipophilicity of a compound. The current method for measurement of Log DO/W is based on the traditional shake flask technique, but with the modification of measuring compounds in mixtures of ten at a time using UPLC with quantitative mass spectrometry (MS) as a method to measure the relative octanol and aqueous concentrations. […] An additional QC sample Caffeine, with low Log D, are used and randomly placed in all runs. The method has been thoroughly validated against the previous shake flask methodologies.

Structure (SMILES)	logD
COc1cc(OCCN2CC(CF)C2)ccc1[C@@H]1c2ccc3[nH]ncc3c2C[C@@H](C)N1CC(C)C [Example 9, (6S,8R)-6-(4-(2-(3-(fluoromethyl)azetidin-1-yl)ethoxy)-2-methoxyphenyl)-7-isobutyl-8-methyl-6,7,8,9-tetrahydro-3H-pyrazolo[4,3-f]isoquinoline]	2.4
COc1cc(OCCN2CC(CF)C2)ccc1[C@@H]1c2ccc3[nH]ncc3c2C[C@@H](C)N1CC(C)(C)F [Example 5, (6S,8R)-7-(2-fluoro-2-methylpropyl)-6-(4-(2-(3-(fluoromethyl)azetidin-1-yl)ethoxy)-2-methoxyphenyl)-8-methyl-6,7,8,9-tetrahydro-3H-pyrazolo[4,3-f]isoquinoline]	3.5
C[C@@H]1Cc2c(ccc3[nH]ncc23)[C@@H](c2ccc(OCCN3CC(CF)C3)cn2)N1CC(F)F [Example 51, (6S,8R)-7-(2,2-difluoroethyl)-6-(5-(2-(3-(fluoromethyl)azetidin-1-yl)ethoxy)pyridin-2-yl)-8-methyl-6,7,8,9-tetrahydro-3H-pyrazolo[4,3-f]isoquinoline]	2.4
C[C@@H]1Cc2c(ccc3[nH]ncc23)[C@@H](c2ccc(OCCN3CC(CF)C3)cn2)N1CC1(F)CC1 [Example 8, (6S,8R)-7-((1-fluorocyclopropyl)methyl)-6-(5-(2-(3-(fluoromethyl)azetidin-1-yl)ethoxy)pyridin-2-yl)-8-methyl-6,7,8,9-tetrahydro-3H-pyrazolo[4,3-f]isoquinoline]	2.6
C[C@@H]1Cc2c(ccc3[nH]ncc23)[C@@H](c2ccc(OCCN3CC(CF)C3)cn2)N1CC(F)(F)F [Example 49, (6S,8R)-6-(5-(2-(3-(fluoromethyl)azetidin-1-yl)ethoxy)pyridin-2-yl)-8-methyl-7-(2,2,2-trifluoroethyl)-6,7,8,9-tetrahydro-3H-pyrazolo[4,3-f]isoquinoline]	3
COc1cc(OCCN2CC(CF)C2)ccc1[C@@H]1c2ccc3[nH]ncc3c2C[C@@H](C)N1CC1(F)CC1 [Example 6, (6S,8R)-7-((1-fluorocyclopropyl)methyl)-6-(4-(2-(3-(fluoromethyl)azetidin-1-yl)ethoxy)-2-methoxyphenyl)-8-methyl-6,7,8,9-tetrahydro-3H-pyrazolo[4,3-f]isoquinoline]	2.8
